Measured values as given in patent publication US20240351999A1, “PYRROLYLACYLPIPERIDYLAMINE COMPOUND AND USE THEREOF” (INSTITUTE OF MATERIA MEDICA ,CHINESE ACADEMY OF MEDICAL …, priority 2021, published 2024).
In brackets after ≈: the same amount, converted by molar mass. Like-named read-outs stand apart in the source and are kept apart here.

Experiments:
[1] = test system: Staphylococcus aureus ATCC 29213; experiment: In vitro antibacterial activity (MIC), microbroth dilution; format: cell-based; details: ATCC29213, 37° C., 18 h
[2] = test system: Staphylococcus epidermidis ATCC 12228; experiment: as above; format: cell-based; details: ATCC12228, 37° C., 18 h
[3] = test system: Staphylococcus aureus ATCC 25923; experiment: as above; format: cell-based; details: ATCC25923, 37° C., 18 h
[4] = test system: Staphylococcus aureus ATCC 43300 (MRSA); experiment: as above; format: cell-based; details: 18 h, read-out: MIC Staphylococcus aureus ATCC 43300 (MRSA)
[5] = test system: Staphylococcus aureus MRSA 15-1; experiment: as above; format: cell-based; details: 37° C., 18 h
[6] = test system: Staphylococcus epidermidis MRSE 15-1; experiment: as above; format: cell-based; details: 37° C., 18 h
[7] = test system: Enterococcus faecalis ATCC 51575; experiment: as above; format: cell-based; details: ATCC51575, 37° C., 18 h
[8] = test system: Enterococcus faecium EFM 19-1; experiment: as above; format: cell-based; details: EFM191, 37° C., 18 h
[9] = test system: Escherichia coli ATCC 25922; experiment: as above; format: cell-based; details: read-out: MIC Escherichia coli ATCC 25922
[10] = test system: Escherichia coli ATCC 35218; experiment: as above; format: cell-based; details: read-out: MIC Escherichia coli ATCC 35218
[11] = test system: Escherichia coli ECO+ 15-1; experiment: as above; format: cell-based; details: 18 h, read-out: MIC Escherichia coli ECO+ 15-1
[12] = test system: Acinetobacter baumannii ATCC 19606; experiment: as above; format: cell-based; details: read-out: MIC Acinetobacter baumannii ATCC 19606
[13] = test system: Pseudomonas aeruginosa ATCC 27853; experiment: as above; format: cell-based; details: read-out: MIC Pseudomonas aeruginosa ATCC 27853
[14] = test system: Klebsiella pneumoniae KPN-15-1; experiment: as above; format: cell-based; details: read-out: MIC Klebsiella pneumoniae KPN-15-1
[15] = test system: Clostridium difficile ATCC 9689; experiment: as above; format: cell-based
[16] = test system: Mycobacterium tuberculosis; experiment: Activity against Mycobacterium tuberculosis (MIC); format: cell-based; details: read-out: Inhibitory activity (MIC) against Mycobacterium tuberculosis
[17] = test system: Staphylococcus aureus ATCC 29213; experiment: In vitro induced drug resistance, 20 generations at sub-MIC; format: cell-based; details: ATCC29213, read-out: MIC value after passage for 20 generations
Procedure: Test method: MIC values of a compound 1 and a control compound DS2969 against Staphylococcus aureus ATCC 29213 were determined by using a microbroth dilution method recommended by operating procedures for antibacterial susceptibility testing of the Clinical and Laboratory Standards Institute (CLSI).
After testing the MIC values, sub-MIC concentrations (1/2 MIC) of bacteria were diluted, and the concentration of the obtained bacterial solution was adjusted to 105 CFU/mL for a next round of MIC value testing. After 24 hours of incubation, bacterial suspensions were prepared by using bacterial suspensions at sub-MIC concentrations of drugs (1/2 MIC), and another MIC testing was performed. This process was repeated for 20 times, and the MIC value for each test was recorded.
The MIC values of the compound 1 and DS2969 inducing Staphylococcus aureus ATCC29213 for 20 generations were recorded, with the number of generations of bacteria induced as an abscissa and the MIC values as an ordinate (as shown in FIG. 1).

[18] = test system: Staphylococcus aureus (MRSA, ATCC 43300); experiment: Antibacterial activity in mice, sepsis model; format: in vivo, ICR mice; details: MRSA ATCC 43300 sepsis model
Procedure: (§1) Experimental animals: Beijing Vital River Laboratory Animal Technology Co., Ltd., ICR mice, with a uniform body weight of 20-22 g, and half male and half female.
Model: Sepsis model infected by Staphylococcus aureus (MRSA, ATCC 43300)
Modeling method: mice were infected with […] (diluted with a 5% sterile yeast solution) Staphylococcus aureus (MRSA, ATCC 43300) such that sepsis models of mice were formed (0.5 mL of a bacterial solution was injected intraperitoneally into each mouse).
Experimental scheme: a compound 1 and a positive drug were first dissolved in DMSO, and then diluted with other solvents, wherein a solvent ratio was saline:Tween 80:DMSO=9:0.5:0.5.

[19] = Pharmacokinetic test in mice; format: in vivo; details: both sexes, ICR, mouse, po, 150 mg/kg intragastric administration; for half-life: read-out: t½z (half-life period) (converted)
Procedure: as §1
Experimental scheme: a compound 1 was administered at a dose of 150 mg/kg (Solvents were as follows: saline:Tween 80:DMSO=9:0.5:0.5) by intragastric administration, and samples were taken by orbital blood sampling or a mode of sampling blood by enucleating eyeballs at 10 min, 20 min, 30 min, 1 h, 3 h, 5 h, 8 h, 24 h, 36 h, and 48 h after administration, plasma concentrations were determined by UPLC, a drug concentration-time curve was plotted, and key pharmacokinetic parameters were calculated.

[20] = Acute toxicity test in mice; format: in vivo
Source text: as §1
In a tail vein administration group, there were 10 mice in each group, with half male and half female. In an intragastric administration group and an intraperitoneal administration group, there were four mice in each group, with half male and half female.

[21] = test system: Escherichia coli ATCC25922; details: prior art value; cited from earlier work
[22] = Clostridioides difficile, ATCC9689; read-out: MIC Clostridium difficile ATCC 9689

Row | SMILES | MIC [1] | MIC [2] | MIC [3] | MIC [5] | MIC [6] | MIC [7] | MIC [8] | MIC ([9]; ATCC25922, 37° C., 18 h) | MIC ([10]; ATCC35218, 37° C., 18 h) | MIC ([11]; 37° C.) | MIC ([12]; ATCC19606, 37° C., 18 h) | MIC ([13]; ATCC27853, 37° C., 18 h) | MIC ([14]; KPN151, 37° C., 18 h) | further results
1 | CO[C@H]1CN(c2cnc(C(C)(C)O)cn2)CC[C@H]1NC(=O)c1[nH]c(C)c(Cl)c1Cl [Compound 4, 3,4-Dichloro-N-((3S,4R)-1-(5-(2-hydroxypropan-2-yl)pyrazin-2-yl)-3-methoxypiperidin-4-yl)-5-methyl-1H-pyrrole-2-carboxamide] | 0.25 µg/mL (≈ 0.565 µM) | 0.5 µg/mL (≈ 1.13 µM) |  |  |  |  |  |  |  |  |  |  |  | 
2 | CO[C@H]1CN(c2ccc(C(C)(C)O)nn2)CC[C@H]1NC(=O)c1[nH]c(C)c(Cl)c1Cl [Compound 1, 3,4-dichloro-N-{(3S,4R)-1-[6-(2-hydroxypropan-2-yl)pyridazin-3-yl]-3-methoxypiperidin-4-yl}-5-methyl-IH-pyrrole-2-carboxamide] | 0.008 µg/mL (≈ 0.0181 µM) | ≤ 0.03 µg/mL | ≤ 0.03 µg/mL | ≤ 0.03 µg/mL | ≤ 0.03 µg/mL | ≤ 0.03 µg/mL | ≤ 0.03 µg/mL | 1 µg/mL (≈ 2.26 µM) | 1 µg/mL (≈ 2.26 µM) | 8 µg/mL (≈ 18.1 µM) | 8 µg/mL (≈ 18.1 µM) | 4 µg/mL (≈ 9.04 µM) | 8 µg/mL (≈ 18.1 µM) | MIC [4]: ≤ 0.03 µg/mL; MIC [15, 22]: 0.25 µg/mL (≈ 0.565 µM); Activity against Clostridium difficile compared with controls ([15]; vs DS2969 and vancomycin): stronger than those of DS2969 and the positive control drug vancomycin; MIC [16]: 0.593 µg/mL (≈ 1.34 µM); MIC [17]: < 1 µg/mL; In vivo antibacterial activity (survival of mice) ([18]; 50 mg/kg, 1 h after modeling, observed 14 days): significant in vivo antibacterial activity and shows better antibacterial activity than DS2969; ED50 ([18]; Staphylococcus aureus, po, intragastric administration at lower dose): 5 mg/kg; bioavailability ([19]; in vivo, read-out: F (bioavailability)): 86%; half-life ([19]; in vivo): 9.2 h; AUC(0-inf) ([19]; plasma): 933 µg·h/mL; Cmax ([19]; plasma): 49400 ng/mL; Tmax ([19]; plasma): 1 h; AUC(0-t) ([19]; plasma, read-out: AUC (0-48)): 916 µg·h/mL; MRT last ([19]; plasma, read-out: MRT (0-48)): 16.1 h; MRT inf ([19]; plasma, read-out: MRT (0-∞)): 16.9 h; half-life ([19]; plasma): 9.21 h; Survival rate on day 14 ([20]; 95 mg/kg by a tail vein): 60%; Survival rate on day 14 ([20]; 200 mg/kg intraperitoneally): 100%; Survival rate on day 14 ([20]; 800 mg/kg by intragastric administration): 75%
3 | CO[C@H]1CN(c2ccc(C3(O)CCCCC3)nn2)CC[C@H]1NC(=O)c1[nH]c(C)c(Cl)c1Cl [Compound 8, 3,4-Dichloro-N-((3S,4R)-1-(6-(1-hydroxycyclohexyl)pyridazin-3-yl)-3-methoxypiperidin-4-yl)-5-methyl-1H-pyrrole-2-carboxamide] | ≤ 0.03 µg/mL | ≤ 0.03 µg/mL |  |  |  |  |  | 16 µg/mL (≈ 33.2 µM) |  |  |  |  |  | 
4 | C[C@H]1COc2c(N3CCN(C)CC3)c(F)cc3c(=O)c(C(=O)O)cn1c23 [Levofloxacin, reference compound] | 0.25 µg/mL (≈ 0.692 µM) | 0.125 µg/mL (≈ 0.346 µM) | 0.25 µg/mL (≈ 0.692 µM) | 16 µg/mL (≈ 44.3 µM) | 4 µg/mL (≈ 11.1 µM) | 0.5 µg/mL (≈ 1.38 µM) | 0.5 µg/mL (≈ 1.38 µM) | ≤ 0.06 µg/mL | ≤ 0.06 µg/mL | 8 µg/mL (≈ 22.1 µM) | 0.25 µg/mL (≈ 0.692 µM) | 2 µg/mL (≈ 5.53 µM) | 0.5 µg/mL (≈ 1.38 µM) | MIC ([4]; 37° C.): 0.25 µg/mL (≈ 0.692 µM)
5 | CN[C@H](CC(C)C)C(=O)N[C@H]1C(=O)N[C@@H](CC(N)=O)C(=O)N[C@H]2C(=O)N[C@H]3C(=O)N[C@H](C(=O)N[C@H](C(=O)O)c4cc(O)cc(O)c4-c4cc3ccc4O)[C@H](O)c3ccc(c(Cl)c3)Oc3cc2cc(c3O[C@@H]2O[C@H](CO)[C@@H](O)[C@H](O)[C@H]2O[C@H]2C[C@](C)(N)[C@H](O)[C@H](C)O2)Oc2ccc(cc2Cl)[C@H]1O [Vancomycin] |  |  |  |  |  |  |  |  |  |  |  |  |  | MIC ([9]; ATCC25922, 18 h): > 64 µg/mL; MIC ([10]; ATCC35218, 18 h): > 64 µg/mL; MIC [11]: > 64 µg/mL; MIC ([12]; ATCC19606, 18 h): > 64 µg/mL; MIC ([13]; ATCC27853, 18 h): > 64 µg/mL; MIC ([14]; KPN151, 18 h): > 64 µg/mL; MIC ([15]; Clostridioides difficile, ATCC9689, read-out: MIC Clostridium difficile ATCC 9689): 2 µg/mL (≈ 1.38 µM)
6 | CO[C@H]1CN(c2ncc(C(C)(C)O)s2)CC[C@H]1NC(=O)c1[nH]c(C)c(Cl)c1Cl [Compound 6, 3,4-Dichloro-N-((3S,4R)-1-(5-(2-hydroxypropan-2-yl)thiazol-2-yl)-3-methoxypiperidin-4-yl)-5-methyl-1H-pyrrole-2-carboxamide] | 0.25 µg/mL (≈ 0.559 µM) | 0.25 µg/mL (≈ 0.559 µM) |  |  |  |  |  |  |  |  |  |  |  | 
7 | CO[C@H]1CN(c2ccc(C3(O)CCCC3)nn2)CC[C@H]1NC(=O)c1[nH]c(C)c(Cl)c1Cl [Compound 7, 3,4-Dichloro-N-((3S,4R)-1-(6-(1-hydroxycyclopentyl)pyridazin-3-yl)-3-methoxypiperidin-4-yl)-5-methyl-1H-pyrrole-2-carboxamide] | ≤ 0.03 µg/mL | 0.125 µg/mL (≈ 0.267 µM) |  |  |  |  |  | 8 µg/mL (≈ 17.1 µM) |  |  |  |  |  | 
8 | CO[C@H]1CN(c2nnc(C(C)(C)O)s2)CC[C@H]1NC(=O)c1[nH]c(C)c(Cl)c1Cl [Compound 2, 3,4-Dichloro-N-((3S,4R)-1-(5-(2-hydroxypropan-2-yl)-1,3,4-thiadiazol-2-yl)-3-methoxypiperidin-4-yl)-5-methyl-1H-pyrrole-2-carboxamide] | 0.008 µg/mL (≈ 0.0178 µM) | ≤ 0.03 µg/mL | ≤ 0.03 µg/mL | ≤ 0.03 µg/mL | ≤ 0.03 µg/mL | ≤ 0.03 µg/mL | ≤ 0.03 µg/mL | 2 µg/mL (≈ 4.46 µM) | 1 µg/mL (≈ 2.23 µM) | 16 µg/mL (≈ 35.7 µM) | 16 µg/mL (≈ 35.7 µM) | 8 µg/mL (≈ 17.8 µM) | 16 µg/mL (≈ 35.7 µM) | MIC ([4]; 37° C.): ≤ 0.03 µg/mL; MIC [15, 22]: 0.25 µg/mL (≈ 0.558 µM); Activity against Clostridium difficile compared with controls ([15]; vs DS2969 and vancomycin): stronger than those of DS2969 and the positive control drug vancomycin; MIC [16]: 0.595 µg/mL (≈ 1.33 µM)
9 | COC[C@H](C)NC(=O)c1nc(N2CC[C@@H](NC(=O)c3[nH]c(C)c(Cl)c3Cl)[C@@H](OC)C2)sc1C(=O)O [AZD5099] | 0.03 µg/mL (≈ 0.0547 µM) |  |  |  |  |  |  | 32 µg/mL (≈ 58.3 µM) | 32 µg/mL (≈ 58.3 µM) | > 64 µg/mL | > 64 µg/mL | > 64 µg/mL | > 64 µg/mL | MIC Escherichia coli ATCC25922 (background) [21]: 32 µg/mL (≈ 58.3 µM)
